Reference: patent US20160108049A1 (TAKEDA Gmbh, priority 2011, published 2016)

Assays:
PDE4B1 = target: T1, PDE4B1 (Homo sapiens, UniProt Q07343); experiment: Inhibition of PDE4 activity (PDE4B1, SPA assay); type: biochemical; conditions: recombinant PDE4B1, 0.5 μM cAMP; read-out: PDE4B1 Inhibitory values measured as -logIC50 (converted)
T1 construct: made in house; host or cells: SF21 insect cells (baculovirus; virus made in SF9 cells, pCR-Bac vector)
Procedure, shortened: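 Baculovirus-expressed enzyme from SF21 cell 1000×g supernatant; substrate 0.5 μM [3H]cAMP in 20 mM Tris pH 7.4, 5 mM Mg2+, 0.1 mg/ml BSA, 10-20% conversion. 5 min preincubation at 37 °C, 15 min reaction, stopped by SPA beads with IBMX; IC50 by non-linear regression.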

human PDE5 = target: T2, human PDE5 (Homo sapiens, UniProt O76074); experiment: Inhibition of PDE5 activity (platelet lysate, SPA assay); type: biochemical; conditions: 0.5 μM cGMP, read-out: PDE5 Inhibitory values measured as -logIC50 (converted)
T2 construct: from tissue; host or cells: human platelets from fresh donor blood (platelet lysate)
Procedure, shortened: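 Human platelet lysate (10,000 g supernatant) served as PDE5 source, with 1 μM motapizone and 10 nM PDE2 inhibitor added, in Tris pH 7.4, 5 mM Mg2+, BSA. Substrate 0.5 μM [3H]cGMP, 10–20% conversion; 5 min preincubation then 15 min at 37 °C, stopped by SPA beads with IBMX. IC50 by non-linear regression.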

T1 sequence (Q07343 whole entry): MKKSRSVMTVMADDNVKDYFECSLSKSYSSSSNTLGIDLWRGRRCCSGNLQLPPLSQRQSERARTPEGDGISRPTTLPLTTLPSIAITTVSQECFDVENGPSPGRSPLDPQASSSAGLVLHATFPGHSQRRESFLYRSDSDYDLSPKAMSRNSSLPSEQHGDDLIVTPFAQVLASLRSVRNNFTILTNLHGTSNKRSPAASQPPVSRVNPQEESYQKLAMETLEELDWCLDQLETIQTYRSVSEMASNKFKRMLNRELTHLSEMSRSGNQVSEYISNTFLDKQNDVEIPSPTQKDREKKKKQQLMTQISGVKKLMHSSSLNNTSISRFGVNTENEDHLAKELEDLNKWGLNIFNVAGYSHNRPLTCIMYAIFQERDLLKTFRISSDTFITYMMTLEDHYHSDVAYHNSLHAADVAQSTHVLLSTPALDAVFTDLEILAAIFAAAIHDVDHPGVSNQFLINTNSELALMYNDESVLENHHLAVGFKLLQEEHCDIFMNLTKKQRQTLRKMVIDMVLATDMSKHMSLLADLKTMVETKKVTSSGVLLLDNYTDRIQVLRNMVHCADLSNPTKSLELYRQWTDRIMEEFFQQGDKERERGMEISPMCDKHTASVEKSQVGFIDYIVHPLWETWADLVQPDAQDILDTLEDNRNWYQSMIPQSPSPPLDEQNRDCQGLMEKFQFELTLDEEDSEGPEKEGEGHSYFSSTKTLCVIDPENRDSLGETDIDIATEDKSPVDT

| SMILES | IC50 (PDE4B1) | IC50 (human PDE5) |
| --- | --- | --- |
| COc1ccc(C2=NN(C3CCN(C(=O)[C@@H](CCC(=O)NC(C)C)NC(=O)c4c[nH]c5c(-c6c(OCC7CC7)ccc7c6OCO7)ncnc45)CC3)C(=O)[C@@H]3CCCC[C@H]23)cc1OC [Example 107, 4-[5-(cyclopropylmethoxy)-1,3-benzodioxol-4-yl]-N-[(2R)-1-{4-[(4aS,8aR)-4-(3,4-dimethoxyphenyl)-1-oxo-4a,5,6,7,8,8a-hexahydrophthalazin-2(1H)-yl]piperidin-1-yl}-1,5-dioxo-5-(propan-2-ylamino)pentan-2-yl]-5H-pyrrolo[3,2-d]pyrimidine-7-carboxamide] | 1 to 10 nM | 1 to 10 nM |
| COc1ccc(C2=NN(C3CCN(C(=O)[C@H](Cc4cccc(C)c4)NC(=O)c4c(C)[nH]c5c(-c6c(OCC7CC7)ccc7c6OCO7)ncnc45)CC3)C(=O)[C@@H]3CCCC[C@H]23)cc1OC [Example 4, 4-[5-(cyclopropylmethoxy)-1,3-benzodioxol-4-yl]-N-[(2S)-1-{4-[(4aS,8aR)-4-(3,4-dimethoxyphenyl)-1-oxo-4a,5,6,7,8,8a-hexahydrophthalazin-2(1H)-yl]piperidin-1-yl}-3-(3-methylphenyl)-1-oxopropan-2-yl]-6-methyl-5H-pyrrolo[3,2-d]pyrimidine-7-carboxamide] | 1 to 10 nM | 1 to 10 nM |
| COc1ccc(C2=NN(C3CCN(C(=O)[C@@H](Cc4ccc(F)c(F)c4)NC(=O)c4c[nH]c5c(-c6c(OCC7CC7)ccc7c6OCO7)ncnc45)CC3)C(=O)[C@@H]3CCCC[C@H]23)cc1OC [Example 19, 4-[5-(cyclopropylmethoxy)-1,3-benzodioxol-4-yl]-N-[(2R)-3-(3,4-difluorophenyl)-1-{4-[(4aS,8aR)-4-(3,4-dimethoxyphenyl)-1-oxo-4a,5,6,7,8,8a-hexahydrophthalazin-2(1H)-yl]piperidin-1-yl}-1-oxopropan-2-yl]-5H-pyrrolo[3,2-d]pyrimidine-7-carboxamide] | 1 to 10 nM | 1 to 10 nM |
| COc1ccc(C2=NN(C3CCN(C(=O)[C@@H](Cc4ccccc4)NC(=O)c4c(C)[nH]c5c(-c6c(OCC7CC7)ccc7c6OCO7)ncnc45)CC3)C(=O)C3(CCCC3)C2)cc1OC [Example 124, 4-[5-(cyclopropylmethoxy)-1,3-benzodioxol-4-yl]-N-[(2R)-1-{4-[9-(3,4-dimethoxyphenyl)-6-oxo-7,8-diazaspiro[4.5]dec-8-en-7-yl]piperidin-1-yl}-1-oxo-3-phenylpropan-2-yl]-6-methyl-5H-pyrrolo[3,2-d]pyrimidine-7-carboxamide] | 1 to 10 nM | 1 to 10 nM |
| COc1ccc(C2=NN(C3CCN(C(=O)[C@H](CCC(=O)N4CCCCC4)NC(=O)c4c(C)[nH]c5c(-c6c(OCC7CC7)ccc7c6OCO7)ncnc45)CC3)C(=O)[C@@H]3CCCC[C@H]23)cc1OC [Example 83, 4-[5-(cyclopropylmethoxy)-1,3-benzodioxol-4-yl]-N-[(2S)-1-{4-[(4aS,8aR)-4-(3,4-dimethoxyphenyl)-1-oxo-4a,5,6,7,8,8a-hexahydrophthalazin-2(1H)-yl]piperidin-1-yl}-1,5-dioxo-5-(piperidin-1-yl)pentan-2-yl]-6-methyl-5H-pyrrolo[3,2-d]pyrimidine-7-carboxamide] | 1 to 10 nM | < 1 nM |
| COc1ccc(C2=NN(C3CCN(C(=O)[C@H](NC(=O)c4c(C)[nH]c5c(-c6c(OCC7CC7)ccc7c6OCO7)ncnc45)C(C)C)CC3)C(=O)[C@@H]3CCCC[C@H]23)cc1OC [Example 120, 4-[5-(cyclopropylmethoxy)-1,3-benzodioxol-4-yl]-N-[(2R)-1-{4-[(4aS,8aR)-4-(3,4-dimethoxyphenyl)-1-oxo-4a,5,6,7,8,8a-hexahydrophthalazin-2(1H)-yl]piperidin-1-yl}-3-methyl-1-oxobutan-2-yl]-6-methyl-5H-pyrrolo[3,2-d]pyrimidine-7-carboxamide] | 1 to 10 nM | 1 to 10 nM |
